The record followed here is patent publication US11484561B2, “Morus extracts rich in N-acids of imino sugars and or pipecolic acids” (Phynova Limited, priority 2011, dated 2022).

Holding throughout (format): biochemical
One experiment concerns the target T1, α-D-glucosidase (Yeast) (Saccharomyces cerevisiae, UniProt P53341).
T1 construct: purchased Sigma-Aldrich
The experiment is described as follows: Glycosidase assay, α-D-glucosidase (Yeast). The conditions noted are these: Table 16; % inhibition; concentration not given. As to the method: (§1) The assays used p-nitrophenyl-substrates and commercial enzymes purchased from Sigma-Aldrich. Enzymes were assayed at 27° C. in 0.1M citric acid/0.2M disodium hydrogen phosphate buffers at the optimum pH for the enzyme. The incubation mixture consisted of 10 μl enzyme solution, 10 μl of 10 mg/ml aqueous solution of extract and 50 μl of the appropriate 5 mM p-nitrophenyl substrate made up in buffer at the optimum pH for the enzyme. The reactions were stopped by addition of 70 μl 0.4M glycine (pH 10.4) during the exponential phase of the reaction, which had been determined at the beginning using uninhibited assays in which water replaced mulberry fractions. Final absorbances were read at 405 nm using a Versamax microplate reader (Molecular Devices). Assays were carried out in triplicate, and the values given are means of the three replicates per assay. Results are expressed as % inhibition.
(§2) Substrates are 10 mM p-nitrophenyl-glycopyranosides. Enzymes are purchased from Sigma and run at the pH optima

Experiment [1] deals with α-D-glucosidase (Bacillus). The experiment is described as follows: Glycosidase assay, α-D-glucosidase (Bacillus). The conditions noted are these: Table 16; % inhibition; concentration not given. Here is the method: as §1, §2
The target in a further experiment is T2, α-D-glucosidase (rice) (Oryza sativa subsp. japonica, UniProt Q653V7).
T2 construct: purchased Sigma-Aldrich
T2 sequence (Q653V7 34-885): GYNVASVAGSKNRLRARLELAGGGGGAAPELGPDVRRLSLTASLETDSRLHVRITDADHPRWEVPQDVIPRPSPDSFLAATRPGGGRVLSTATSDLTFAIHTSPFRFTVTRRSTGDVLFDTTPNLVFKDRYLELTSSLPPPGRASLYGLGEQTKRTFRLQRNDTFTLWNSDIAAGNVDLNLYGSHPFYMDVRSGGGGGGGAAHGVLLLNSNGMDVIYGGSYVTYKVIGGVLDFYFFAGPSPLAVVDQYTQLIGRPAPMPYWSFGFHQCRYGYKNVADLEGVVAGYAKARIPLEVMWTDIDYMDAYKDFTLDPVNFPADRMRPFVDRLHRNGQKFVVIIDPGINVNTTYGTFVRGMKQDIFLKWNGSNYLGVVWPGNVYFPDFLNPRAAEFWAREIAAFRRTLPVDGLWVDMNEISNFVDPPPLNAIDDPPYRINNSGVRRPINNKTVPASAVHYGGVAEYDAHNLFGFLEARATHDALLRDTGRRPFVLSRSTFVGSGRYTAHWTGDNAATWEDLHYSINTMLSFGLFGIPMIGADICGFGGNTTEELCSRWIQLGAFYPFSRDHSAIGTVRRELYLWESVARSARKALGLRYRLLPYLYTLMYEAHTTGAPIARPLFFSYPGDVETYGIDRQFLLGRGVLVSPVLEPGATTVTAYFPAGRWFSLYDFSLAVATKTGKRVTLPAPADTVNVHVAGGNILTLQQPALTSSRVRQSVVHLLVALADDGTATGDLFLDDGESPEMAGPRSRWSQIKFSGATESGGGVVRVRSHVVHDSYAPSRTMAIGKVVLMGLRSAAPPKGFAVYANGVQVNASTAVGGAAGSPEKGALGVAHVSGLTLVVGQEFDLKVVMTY
The experiment is described as follows: Glycosidase assay, α-D-glucosidase (rice). The conditions noted are these: Table 16; % inhibition; concentration not given. Here is the method: as §1, §2

Experiment [2] concerns the target T3, α-D-galactosidase (green coffee bean) (Coffea arabica, UniProt Q42656).
T3 construct: purchased Sigma-Aldrich
Put plainly: Glycosidase assay, α-D-galactosidase (green coffee bean). Conditions: Table 16; % inhibition; concentration not given. As to the method: as §1, §2

The target of the next experiment is T4, α-L-fucosidase (bovine) (Bos taurus, UniProt Q2KIM0).
T4 construct: purchased Sigma-Aldrich
T4 sequence (Q2KIM0 23-468): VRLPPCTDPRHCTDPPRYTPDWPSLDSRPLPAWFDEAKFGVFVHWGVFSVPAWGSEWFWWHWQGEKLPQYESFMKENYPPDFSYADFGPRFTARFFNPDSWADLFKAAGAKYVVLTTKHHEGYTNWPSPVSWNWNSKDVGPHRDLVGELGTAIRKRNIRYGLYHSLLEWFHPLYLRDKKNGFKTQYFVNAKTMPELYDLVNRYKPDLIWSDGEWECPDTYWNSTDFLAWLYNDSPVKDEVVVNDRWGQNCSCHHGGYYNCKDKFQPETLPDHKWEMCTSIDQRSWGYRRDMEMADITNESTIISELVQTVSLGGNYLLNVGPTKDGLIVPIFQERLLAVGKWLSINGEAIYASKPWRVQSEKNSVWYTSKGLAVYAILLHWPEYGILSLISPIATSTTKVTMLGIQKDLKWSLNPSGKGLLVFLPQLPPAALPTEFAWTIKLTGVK
Put plainly: Glycosidase assay, α-L-fucosidase (bovine). Conditions: Table 16; % inhibition; concentration not given. As to the method: as §1

In experiment [3] the target is T5, α-D-mannosidase (Jack bean) (Canavalia ensiformis, UniProt C0HJB3).
T5 construct: purchased Sigma-Aldrich
T5 sequence (C0HJB3 1-562 limits assumed): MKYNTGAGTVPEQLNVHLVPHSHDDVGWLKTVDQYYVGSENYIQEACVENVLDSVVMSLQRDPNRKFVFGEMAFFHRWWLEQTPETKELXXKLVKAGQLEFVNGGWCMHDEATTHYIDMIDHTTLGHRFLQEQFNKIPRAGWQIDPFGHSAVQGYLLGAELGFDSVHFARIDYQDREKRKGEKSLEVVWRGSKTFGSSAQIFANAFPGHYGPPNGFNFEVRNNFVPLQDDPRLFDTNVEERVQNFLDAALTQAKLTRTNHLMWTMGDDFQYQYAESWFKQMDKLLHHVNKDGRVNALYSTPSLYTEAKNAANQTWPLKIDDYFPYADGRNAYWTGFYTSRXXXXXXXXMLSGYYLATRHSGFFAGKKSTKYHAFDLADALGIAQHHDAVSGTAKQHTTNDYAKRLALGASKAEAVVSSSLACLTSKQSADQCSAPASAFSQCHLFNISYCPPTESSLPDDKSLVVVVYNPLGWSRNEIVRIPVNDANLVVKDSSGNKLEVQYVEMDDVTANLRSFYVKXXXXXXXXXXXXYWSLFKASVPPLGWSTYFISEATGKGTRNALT
Put plainly: Glycosidase assay, α-D-mannosidase (Jack bean). The conditions noted are these: Table 16; % inhibition; concentration not given. Here is the method: as §1, with “The reactions were stopped by addition of 70 μl 0.4M glycine (pH 10.4) during the exponential phase of the reaction, which had been determined at the beginning using uninhibited assays in which water replaced mulberry fractions.” left out
as §2

Experiment [4] deals with β-D-mannosidase Cellulomonas fimi. Put plainly: Glycosidase assay, β-D-mannosidase (Cellulomonas fimi). The conditions noted are these: Table 16; % inhibition; concentration not given. As to the method: as §1
Experiment [5] has as its system naringinase (P. decumbens). The experiment is described as follows: Glycosidase assay, naringinase (P. decumbens). Conditions: Table 16; % inhibition; concentration not given. As to the method: as §1, §2
Experiment [6] deals with T6, amyloglucosidase (A. niger) (Aspergillus niger, UniProt P69328).
T6 construct: purchased Sigma-Aldrich
T6 sequence (P69328 25-640): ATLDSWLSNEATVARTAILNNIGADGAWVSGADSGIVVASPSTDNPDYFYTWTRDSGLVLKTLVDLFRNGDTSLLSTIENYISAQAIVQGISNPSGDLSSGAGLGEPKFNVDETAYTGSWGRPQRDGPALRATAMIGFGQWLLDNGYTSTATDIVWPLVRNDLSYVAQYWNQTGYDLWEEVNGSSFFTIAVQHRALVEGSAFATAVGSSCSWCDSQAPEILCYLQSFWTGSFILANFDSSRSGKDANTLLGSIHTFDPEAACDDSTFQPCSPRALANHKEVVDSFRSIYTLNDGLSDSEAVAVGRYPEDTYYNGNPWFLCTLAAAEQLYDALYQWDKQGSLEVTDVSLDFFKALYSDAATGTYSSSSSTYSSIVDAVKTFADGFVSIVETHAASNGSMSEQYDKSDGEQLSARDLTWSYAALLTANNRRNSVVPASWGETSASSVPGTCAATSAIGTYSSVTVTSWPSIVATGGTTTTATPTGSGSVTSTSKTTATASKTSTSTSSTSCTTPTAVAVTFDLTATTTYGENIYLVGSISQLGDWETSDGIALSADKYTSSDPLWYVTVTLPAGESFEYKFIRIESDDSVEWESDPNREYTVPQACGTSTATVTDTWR
Put plainly: Glycosidase assay, amyloglucosidase (A. niger). The conditions noted are these: Table 16; % inhibition; concentration not given. As to the method:
as §1, §2

Another experiment concerns β-D-glucosidase (yeast). Put plainly: Glycosidase assay, β-D-glucosidase (yeast). Conditions: Table 16; % inhibition; concentration not given. Here is the method:
as §1

For experiment [7], the target named is T7, human recombinant α-L-iduronidase (Homo sapiens, UniProt P35475).
T7 sequence (P35475 28-653): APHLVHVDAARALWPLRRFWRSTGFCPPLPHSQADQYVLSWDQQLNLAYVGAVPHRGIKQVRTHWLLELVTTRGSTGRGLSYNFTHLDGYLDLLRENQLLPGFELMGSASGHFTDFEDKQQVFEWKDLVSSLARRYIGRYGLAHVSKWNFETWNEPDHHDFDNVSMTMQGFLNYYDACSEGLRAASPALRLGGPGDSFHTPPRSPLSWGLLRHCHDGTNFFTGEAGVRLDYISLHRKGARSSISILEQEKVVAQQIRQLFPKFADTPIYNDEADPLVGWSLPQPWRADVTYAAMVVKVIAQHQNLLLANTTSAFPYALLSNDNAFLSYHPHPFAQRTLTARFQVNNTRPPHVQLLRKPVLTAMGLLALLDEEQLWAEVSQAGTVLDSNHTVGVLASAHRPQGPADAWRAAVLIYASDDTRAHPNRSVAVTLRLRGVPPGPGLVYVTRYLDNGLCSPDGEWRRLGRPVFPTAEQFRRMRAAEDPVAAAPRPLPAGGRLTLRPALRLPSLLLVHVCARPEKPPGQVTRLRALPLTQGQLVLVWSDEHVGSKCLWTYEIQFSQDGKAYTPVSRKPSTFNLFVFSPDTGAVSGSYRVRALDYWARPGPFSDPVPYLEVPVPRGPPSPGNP
The experiment is described as follows: α-L-iduronidase inhibition.

In general, IC50 refers to the concentration needed to halve the response being measured.

T1 sequence (P53341 whole entry): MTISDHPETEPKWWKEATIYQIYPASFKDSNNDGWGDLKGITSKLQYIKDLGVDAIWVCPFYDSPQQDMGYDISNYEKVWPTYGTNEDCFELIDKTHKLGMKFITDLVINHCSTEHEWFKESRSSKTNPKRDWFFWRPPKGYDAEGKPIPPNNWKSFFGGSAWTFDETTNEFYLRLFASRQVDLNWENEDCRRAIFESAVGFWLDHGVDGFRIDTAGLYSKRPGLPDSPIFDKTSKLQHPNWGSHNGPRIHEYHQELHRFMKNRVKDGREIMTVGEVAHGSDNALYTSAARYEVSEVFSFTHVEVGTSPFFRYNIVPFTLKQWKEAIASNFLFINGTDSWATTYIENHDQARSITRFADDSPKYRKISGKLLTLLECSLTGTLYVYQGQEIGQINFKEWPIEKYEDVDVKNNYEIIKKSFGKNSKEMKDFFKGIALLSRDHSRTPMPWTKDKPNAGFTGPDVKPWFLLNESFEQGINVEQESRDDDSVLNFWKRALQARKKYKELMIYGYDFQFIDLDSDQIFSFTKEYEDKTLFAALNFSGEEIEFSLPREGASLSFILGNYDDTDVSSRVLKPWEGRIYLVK
T3 sequence (Q42656 16-378): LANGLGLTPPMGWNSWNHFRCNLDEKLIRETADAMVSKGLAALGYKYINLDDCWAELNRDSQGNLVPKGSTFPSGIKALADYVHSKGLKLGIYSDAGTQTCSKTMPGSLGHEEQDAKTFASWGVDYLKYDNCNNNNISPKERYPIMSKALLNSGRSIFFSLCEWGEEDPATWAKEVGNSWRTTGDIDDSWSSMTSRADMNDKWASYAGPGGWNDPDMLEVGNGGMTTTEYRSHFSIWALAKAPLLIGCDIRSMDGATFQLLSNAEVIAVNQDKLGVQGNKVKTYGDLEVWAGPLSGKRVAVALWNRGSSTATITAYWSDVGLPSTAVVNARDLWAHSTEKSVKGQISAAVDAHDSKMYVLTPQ

With `O=C(O)CN1C[C@@H](O)[C@H](O)[C@H]1CO` [DAB-N-ethanoic, DAB-N-ethanoic acid], the “α-D-glucosidase (Yeast)” value at α-D-glucosidase (Yeast) is reported as 10.7%. Moreover, the “α-D-glucosidase (Bacillus)” value in [1] is on record as 24.2%. Besides, the “α-D-glucosidase (Rice)” value on α-D-glucosidase (rice) is reported as 42%. For the same compound, in experiment [2], the “α-D-galactosidase (Green coffee beans)” value is on record as −5%. The “α-L-fucosidase (Bovine)” value at α-L-fucosidase (bovine) was determined as 3%. In experiment [3], the “α-D-mannosidase (Jack bean)” value stood at 28%. For the same compound, in experiment [4], the “β-D-mannosidase (C. fimi)” value is given as −5%. Further, the “Naringinase (P. decumbens)” value in experiment [5] is listed as 0%. The Amyloglucosidase in [6] is given as −2%. In the experiment with β-D-glucosidase (yeast), the “β-D-glucosidase (yeast)” value came to 7%. Also, in experiment [7], the IC50 came out at 196 µM.
For the compound `OC[C@H]1NC[C@H](O)[C@@H](O)[C@@H]1O` [DNJ, 1 deoxynojirmycin], on α-D-glucosidase (Yeast), the “α-D-glucosidase (Yeast)” value was found to be 36%. For the same compound, in experiment [1], the “α-D-glucosidase (Bacillus)” value was 100%. In addition, on α-D-glucosidase (rice), the “α-D-glucosidase (Rice)” value amounted to 100%. In addition, the “α-D-galactosidase (Green coffee beans)” value in [2] is given as −3%. Besides, on α-L-fucosidase (bovine), the “α-L-fucosidase (Bovine)” value came out at 6%. The “α-D-mannosidase (Jack bean)” value in experiment [3] turned out to be 27%. Further, in [4], the “β-D-mannosidase (C. fimi)” value is −19%. Besides, the “Naringinase (P. decumbens)” value in experiment [5] was determined as 21%. In addition, the Amyloglucosidase in [6] amounted to 32%. Also, the “β-D-glucosidase (yeast)” value with β-D-glucosidase (yeast) is 64%.
As to `O=C(O)CN1C[C@H](O)[C@@H](O)[C@H](O)[C@H]1CO` [DNJ-N-ethanoic, DNJ-ethanoic acid], the “α-D-glucosidase (Yeast)” value at α-D-glucosidase (Yeast) was determined as 2.5%. Further, in experiment [1], the “α-D-glucosidase (Bacillus)” value is on record as 9.1%. For the same compound, the “α-D-glucosidase (Rice)” value at α-D-glucosidase (rice) was determined as 100%. In [2], the “α-D-galactosidase (Green coffee beans)” value is given as −8%. Also, on α-L-fucosidase (bovine), the “α-L-fucosidase (Bovine)” value amounted to 5%. Also, the “α-D-mannosidase (Jack bean)” value in [3] is 38%. Further, in experiment [4], the “β-D-mannosidase (C. fimi)” value is on record as −10%. Also, in experiment [5], the “Naringinase (P. decumbens)” value came out at 0%. In addition, in [6], the Amyloglucosidase is on record as 0%. Also, in the experiment on β-D-glucosidase (yeast), the “β-D-glucosidase (yeast)” value is recorded as 14%. The “inhibition of the iduronidase, in words” value in [7] (at 0.8 mM) is on record as “only weakly inhibits”.
For the compound `O=C(O)CCN1C[C@H](O)[C@@H](O)[C@H](O)[C@H]1CO` [DNJ-N-propanoic, DNJ-N-propanoic acid], the “α-D-glucosidase (Yeast)” value at α-D-glucosidase (Yeast) was 0.0%. Besides, the “α-D-glucosidase (Bacillus)” value in experiment [1] is on record as 45.0%. For the same compound, at α-D-glucosidase (rice), the “α-D-glucosidase (Rice)” value is 100%. Further, the “α-D-galactosidase (Green coffee beans)” value in experiment [2] came out at 15%. Besides, the “α-L-fucosidase (Bovine)” value on α-L-fucosidase (bovine) is 11%. The “α-D-mannosidase (Jack bean)” value in experiment [3] is 40%. In experiment [4], the “β-D-mannosidase (C. fimi)” value is listed as −5%. The “Naringinase (P. decumbens)” value in experiment [5] is 4%. Besides, in experiment [6], the Amyloglucosidase was 53%. In the experiment on β-D-glucosidase (yeast), the “β-D-glucosidase (yeast)” value turned out to be 32%. Also, the IC50 in experiment [7] was found to be 383 µM.
